Assays:
[1] = system: vascular endothelial cell; conditions: endothelial versus tumor cell proliferation; cited from earlier work
[2] = system: chick embryo chorioallantoic membrane; experiment: chick embryo chorioallantoic membrane (CAM) assay; format: in vivo; conditions: 100 μg methylcellulose disk, after 48 hours
Source text: Anti-proliferative activity can be evaluated in situ by testing the ability of the new non-steroidal estradiol derivatives to inhibit the proliferation of new blood vessel cells (angiogenesis). A suitable assay is the chick embryo chorioallantoic membrane (CAM) assay described by Crum et al. Science 230:1375 (1985). See also, U.S. Pat. No. 5,001,116, hereby incorporated by reference, which describes the CAM assay. Briefly, fertilized chick embryos are removed from their shell on day 3 or 4, and a methylcellulose disc containing the drug is implanted on the chorioallantoic membrane. The embryos are examined 48 hours later and, if a clear avascular zone appears around the methylcellulose disc, the diameter of that zone is measured.

MCF-7 cell = experiment: estrogen dependent MCF-7 cell proliferation; format: cell-based; conditions: over a wide range of concentrations
Source text: 2-Methoxyestradiol is an endogenous, steroidal metabolite of estradiol (E2) that has potent anti-proliferative activity and induces apoptosis in a wide variety of tumor and non-tumor cell lines. […] What is needed is a series of compounds that constitute analogs of 2-methoxyestradiol which are non-steroidal in structure and which will have similar biological properties to 2-methoxyestradiol and that can be used in similar applications.

Row | Compound | half-maximal inhibition of endothelial cell proliferation, concentration lower than for tumor cell proliferation [1] [logs] | inhibition of cell mitosis and growth of new blood vessels [2] | estrogenic activity (MCF-7 cell)
1 | CO[C@@H]1[C@H](OC(=O)NC(=O)CCl)CC[C@]2(CO2)[C@H]1[C@@]1(C)O[C@@H]1CC=C(C)C [AGM-1470] | 4 |  | 
2 | COc1cc2c(cc1O)CC[C@@H]1[C@@H]2CC[C@]2(C)[C@@H](O)CC[C@@H]12 [2-methoxyestradiol] |  | inhibit cell mitosis and the growth of new blood vessels | not estrogenic

From US20030187076A1, “Non-steroidal analogs of 2-methoxyestradiol” (priority 2002, published 2003)
